Assay results from article PMC2174406 (Environmental Health Perspectives, 2007).

Legend:
thyroid peroxidase (TPO) = molecular target: T1, thyroid peroxidase (TPO) (Homo sapiens, UniProt P07202); assay: guaiacol oxidation assay with digitonin-extracted recombinant TPO; type: cell-based
T1 sequence (P07202 19-933): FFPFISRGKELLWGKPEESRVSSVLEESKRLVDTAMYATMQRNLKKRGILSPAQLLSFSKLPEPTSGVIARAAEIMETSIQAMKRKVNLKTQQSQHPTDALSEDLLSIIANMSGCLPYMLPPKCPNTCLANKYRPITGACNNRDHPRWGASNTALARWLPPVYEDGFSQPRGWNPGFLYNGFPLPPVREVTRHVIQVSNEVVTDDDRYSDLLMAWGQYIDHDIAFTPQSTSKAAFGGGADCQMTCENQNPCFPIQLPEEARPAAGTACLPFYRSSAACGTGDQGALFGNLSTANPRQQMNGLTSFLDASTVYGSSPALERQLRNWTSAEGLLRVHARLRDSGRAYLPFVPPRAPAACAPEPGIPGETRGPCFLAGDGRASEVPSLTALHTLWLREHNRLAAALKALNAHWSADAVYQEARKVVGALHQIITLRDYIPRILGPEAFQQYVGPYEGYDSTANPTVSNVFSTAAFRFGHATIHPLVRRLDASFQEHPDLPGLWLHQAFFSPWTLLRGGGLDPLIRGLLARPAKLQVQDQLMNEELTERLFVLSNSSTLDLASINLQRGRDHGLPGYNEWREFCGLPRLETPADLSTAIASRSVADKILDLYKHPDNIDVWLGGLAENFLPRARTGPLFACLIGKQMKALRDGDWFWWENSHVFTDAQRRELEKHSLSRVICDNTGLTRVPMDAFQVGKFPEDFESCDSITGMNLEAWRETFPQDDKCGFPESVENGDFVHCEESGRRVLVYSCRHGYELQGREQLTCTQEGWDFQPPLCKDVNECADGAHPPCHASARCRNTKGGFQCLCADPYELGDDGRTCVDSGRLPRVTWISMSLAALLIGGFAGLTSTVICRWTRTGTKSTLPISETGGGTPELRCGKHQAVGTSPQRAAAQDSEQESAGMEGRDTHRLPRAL

transthyretin (TTR) = transthyretin (TTR) (Homo sapiens, UniProt P02766); assay: […]T4 displacement; type: binding; details: cited from earlier work

CC(C)(c1ccc(O)cc1)c1ccc(O)cc1 [bisphenol A]
IC50 (thyroid peroxidase (TPO)): the industrial chemicals 4-NP and BPA also inhibited TPO

O=c1c(-c2ccc(O)cc2)coc2cc(O)ccc12 [daidzein]
IC50 (transthyretin (TTR)): 1800 nM

O=c1c(-c2ccc(O)cc2)coc2cc(O)cc(O)c12 [genistein]
IC50 (transthyretin (TTR)): 70 nM

COc1cc2c(=O)c(-c3ccc(O)cc3)coc2cc1O [glycitein]
IC50 (transthyretin (TTR)): 200 nM
